pIC50: −log10 of the molar value. Calls of active or inactive are those of the source. The calls are words filed in the database; no cut-off is given here.
Experiments:
[1] = target: Cyclin-dependent kinase 2/cyclin E1 (Homo sapiens, UniProt P24941); test: Inhibition of recombinant human CDK2/cyclin E after 40 mins by ADP-Glo reagent based luminescence assay; assay type: protein-complex assay
MDA-MB-231 = test: Growth inhibition of human MDA-MB-231 cells at 20 uM by MTT assay; assay type: functional, cell-based
786-0 = test: Growth inhibition of human 786-O cells at 20 uM by MTT assay; assay type: functional, cell-based
MDA-MB-468 [2] = test: Growth inhibition of human MDA-MB-468 cells at 20 uM by MTT assay; assay type: functional, cell-based
HepG2 = test: Growth inhibition of human HepG2 cells at 20 uM by MTT assay; assay type: functional, cell-based
WM 266-4 = test: Growth inhibition of human WM266.4 cells at 20 uM by MTT assay; assay type: functional, cell-based
MCF7 = test: Growth inhibition of human MCF7 cells at 20 uM by MTT assay; assay type: functional, cell-based
[3] = target: Cyclin-dependent kinase 2 (Homo sapiens) (UniProt P24941); test: Inhibition of CDK2 in human MDA-MB-468 cells assessed as increase in cleaved PARP expression level at 15 uM measured up to 36 hrs by Western blot analysis; assay type: cell-based
[4] = target: Cyclin-dependent kinase 2 (Homo sapiens) (UniProt P24941); test: Inhibition of CDK2 in human MDA-MB-468 cells assessed as increase in cleaved caspase 3 expression level at 15 uM measured up to 36 hrs by Western blot analysis; assay type: cell-based
[5] = target: Cyclin-dependent kinase 2 (Homo sapiens) (UniProt P24941); test: Inhibition of CDK2 in human MDA-MB-468 cells assessed as decrease in caspase 3 expression level at 15 uM measured up to 36 hrs by Western blot analysis; assay type: cell-based
[6] = target: Cyclin-dependent kinase 4/cyclin D1 (Homo sapiens, UniProt P11802); test: Inhibition of recombinant human CDK4/cyclin D1 after 40 mins by ADP-Glo reagent based luminescence assay; assay type: protein-complex assay
Sequence of Cyclin-dependent kinase 4/cyclin D1 (P11802 whole entry): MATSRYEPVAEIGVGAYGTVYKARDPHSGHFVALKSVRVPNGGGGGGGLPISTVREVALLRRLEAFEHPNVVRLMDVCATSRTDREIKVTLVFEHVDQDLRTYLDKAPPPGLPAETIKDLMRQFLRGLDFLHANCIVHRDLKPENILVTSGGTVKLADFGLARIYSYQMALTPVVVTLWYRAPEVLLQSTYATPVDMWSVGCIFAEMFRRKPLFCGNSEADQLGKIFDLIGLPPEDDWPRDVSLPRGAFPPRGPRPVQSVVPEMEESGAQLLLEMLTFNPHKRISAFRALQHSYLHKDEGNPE
Sequence of Cyclin-dependent kinase 4/cyclin D1 (P24385 whole entry, further chain): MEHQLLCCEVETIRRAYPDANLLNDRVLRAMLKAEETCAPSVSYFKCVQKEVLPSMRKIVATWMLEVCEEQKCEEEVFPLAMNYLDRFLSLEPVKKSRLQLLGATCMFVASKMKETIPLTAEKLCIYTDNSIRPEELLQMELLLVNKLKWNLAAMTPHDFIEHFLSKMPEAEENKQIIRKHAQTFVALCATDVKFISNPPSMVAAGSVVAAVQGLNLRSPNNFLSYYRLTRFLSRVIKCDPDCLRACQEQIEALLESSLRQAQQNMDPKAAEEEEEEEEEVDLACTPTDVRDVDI

CDK6/cyclin D3 = CDK6/cyclin D3 (Homo sapiens, UniProt Q00534); test: Inhibition of recombinant human CDK6/cyclin D3 after 40 mins by ADP-Glo reagent based luminescence assay; assay type: protein-complex assay
Sequence of CDK6/cyclin D3 (P30281 whole entry): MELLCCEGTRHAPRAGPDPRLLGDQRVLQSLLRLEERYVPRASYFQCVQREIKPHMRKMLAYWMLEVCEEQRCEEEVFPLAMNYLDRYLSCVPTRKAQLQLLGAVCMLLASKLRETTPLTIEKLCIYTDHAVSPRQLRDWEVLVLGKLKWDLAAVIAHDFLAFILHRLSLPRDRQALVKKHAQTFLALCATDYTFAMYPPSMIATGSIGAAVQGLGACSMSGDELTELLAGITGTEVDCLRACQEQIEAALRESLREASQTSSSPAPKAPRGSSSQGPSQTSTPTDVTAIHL
Sequence of CDK6/cyclin D3 (Q00534 whole entry): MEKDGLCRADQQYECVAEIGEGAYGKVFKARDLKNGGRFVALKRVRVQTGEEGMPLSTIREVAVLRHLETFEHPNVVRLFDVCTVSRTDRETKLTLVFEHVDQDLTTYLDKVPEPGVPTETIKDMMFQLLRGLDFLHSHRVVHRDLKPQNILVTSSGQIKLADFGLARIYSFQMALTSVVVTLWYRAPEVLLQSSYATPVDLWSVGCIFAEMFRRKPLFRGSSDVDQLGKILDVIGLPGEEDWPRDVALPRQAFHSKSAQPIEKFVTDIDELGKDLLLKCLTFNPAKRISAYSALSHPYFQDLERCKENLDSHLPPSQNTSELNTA

CDK7/Cyclin H/MNAT1 = CDK7/Cyclin H/MNAT1 (Homo sapiens, UniProt P50613); test: Inhibition of recombinant human CDK7/cyclin H/MNAT1 after 40 mins by ADP-Glo reagent based luminescence assay; assay type: protein-complex assay
Sequence of CDK7/Cyclin H/MNAT1 (P51946 whole entry): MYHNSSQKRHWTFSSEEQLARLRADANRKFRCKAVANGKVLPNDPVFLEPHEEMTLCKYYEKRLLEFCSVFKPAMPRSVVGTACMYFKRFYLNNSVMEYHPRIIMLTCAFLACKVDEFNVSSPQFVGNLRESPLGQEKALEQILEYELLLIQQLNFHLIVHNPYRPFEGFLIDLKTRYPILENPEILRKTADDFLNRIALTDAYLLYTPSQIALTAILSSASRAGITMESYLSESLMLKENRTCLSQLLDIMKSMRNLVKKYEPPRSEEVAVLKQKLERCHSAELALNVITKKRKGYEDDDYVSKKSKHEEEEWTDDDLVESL
Sequence of CDK7/Cyclin H/MNAT1 (P50613 whole entry): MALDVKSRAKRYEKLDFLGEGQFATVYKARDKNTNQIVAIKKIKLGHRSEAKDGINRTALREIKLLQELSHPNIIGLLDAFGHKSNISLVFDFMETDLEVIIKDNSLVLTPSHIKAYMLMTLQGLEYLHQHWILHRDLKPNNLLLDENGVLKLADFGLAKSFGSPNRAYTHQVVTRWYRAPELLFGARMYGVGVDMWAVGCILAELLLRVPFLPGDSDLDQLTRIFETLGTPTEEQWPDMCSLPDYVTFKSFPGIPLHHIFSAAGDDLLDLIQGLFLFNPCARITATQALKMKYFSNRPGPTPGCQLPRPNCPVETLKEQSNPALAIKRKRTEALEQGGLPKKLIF
Sequence of CDK7/Cyclin H/MNAT1 (P51948 whole entry, further chain): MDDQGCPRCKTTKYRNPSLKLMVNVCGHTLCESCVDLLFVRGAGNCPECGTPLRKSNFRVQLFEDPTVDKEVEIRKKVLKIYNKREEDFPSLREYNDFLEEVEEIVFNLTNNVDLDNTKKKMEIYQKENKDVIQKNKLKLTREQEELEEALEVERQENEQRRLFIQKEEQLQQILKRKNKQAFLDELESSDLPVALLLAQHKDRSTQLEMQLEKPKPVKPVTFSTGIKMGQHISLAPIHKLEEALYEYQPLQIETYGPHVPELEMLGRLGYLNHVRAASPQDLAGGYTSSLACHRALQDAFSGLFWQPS

MDA-MB-468 [7] = test: Antiproliferative activity against human MDA-MB-468 cells after 24 hrs by MTT assay; assay type: functional, cell-based; settings: MDA-MB-468, 24 h
MDA-MB-468 [8] = test: Antiproliferative activity against human MDA-MB-468 cells after 48 hrs by MTT assay; assay type: functional, cell-based; settings: MDA-MB-468, 48 h
MDA-MB-468 [9] = test: Antiproliferative activity against human MDA-MB-468 cells after 72 hrs by MTT assay; assay type: functional, cell-based; settings: MDA-MB-468, 72 h
MDA-MB-468 [10] = test: Cell cycle arrest in human MDA-MB-468 cells assessed as accumulation at G1 phase at 15 uM after 24 hrs by propidium iodide staining based flow cytometry (reference value: 46.38%); assay type: functional
MDA-MB-468 [11] = test: Cell cycle arrest in human MDA-MB-468 cells assessed as accumulation at G2 phase at 15 uM after 24 hrs by propidium iodide staining based flow cytometry (reference value: 14.16%); assay type: functional
MDA-MB-468 [12] = test: Cell cycle arrest in human MDA-MB-468 cells assessed as accumulation at S phase at 15 uM after 24 hrs by propidium iodide staining based flow cytometry (reference value: 39.46%); assay type: functional
[13] = target: Cyclin-dependent kinase 2 (Homo sapiens) (UniProt P24941); test: Inhibition of CDK2 in human MDA-MB-468 cells assessed as decrease in CDK2 phosphorylation at […] residues at 15 uM after 12 to 26 hrs by Western blot analysis; assay type: cell-based
[14] = target: Cyclin-dependent kinase 2 (Homo sapiens) (UniProt P24941); test: Inhibition of CDK2 in human MDA-MB-468 cells assessed as decrease in cyclin E phosphorylation at Thr62 residues at 15 uM after 12 to 26 hrs by Western blot analysis; assay type: cell-based
MDA-MB-468 [15] = test: Induction of morphological changes in human MDA-MB-468 cells at 15 uM after 6 to 24 hrs by Hoechst 33258 staining based fluorescence microscopy; assay type: functional, cell-based
MDA-MB-468 [16] = test: Induction of apoptosis in human MDA-MB-468 cells assessed as viable cells at 15 uM after 6 hrs by Annexin V-FITC/PI staining based flow cytometry (reference value: 91.43%); assay type: functional; settings: MDA-MB-468, 6 h, read-out: Activity
MDA-MB-468 [17] = test: Induction of apoptosis in human MDA-MB-468 cells assessed as early apoptotic cells at 15 uM after 6 hrs by Annexin V-FITC/PI staining based flow cytometry (reference value: 5.74%); assay type: functional
MDA-MB-468 [18] = test: Induction of apoptosis in human MDA-MB-468 cells assessed as late apoptotic cells at 15 uM after 6 hrs by Annexin V-FITC/PI staining based flow cytometry (reference value: 2.49%); assay type: functional
MDA-MB-468 [19] = test: Induction of apoptosis in human MDA-MB-468 cells assessed as necrotic cells at 15 uM after 6 hrs by Annexin V-FITC/PI staining based flow cytometry (reference value: 0.34%); assay type: functional
MDA-MB-468 [20] = test: Induction of apoptosis in human MDA-MB-468 cells assessed as viable cells at 15 uM after 12 hrs by Annexin V-FITC/PI staining based flow cytometry (reference value: 91.43%); assay type: functional; settings: MDA-MB-468, 12 h, read-out: Activity
MDA-MB-468 [21] = test: Induction of apoptosis in human MDA-MB-468 cells assessed as early apoptotic cells at 15 uM after 12 hrs by Annexin V-FITC/PI staining based flow cytometry (reference value: 5.74%); assay type: functional
MDA-MB-468 [22] = test: Induction of apoptosis in human MDA-MB-468 cells assessed as late apoptotic cells at 15 uM after 12 hrs by Annexin V-FITC/PI staining based flow cytometry (reference value: 2.49%); assay type: functional
MDA-MB-468 [23] = test: Induction of apoptosis in human MDA-MB-468 cells assessed as necrotic cells at 15 uM after 12 hrs by Annexin V-FITC/PI staining based flow cytometry (reference value: 0.34%); assay type: functional
MDA-MB-468 [24] = test: Induction of apoptosis in human MDA-MB-468 cells assessed as viable cells at 15 uM after 24 hrs by Annexin V-FITC/PI staining based flow cytometry (reference value: 91.43%); assay type: functional; settings: MDA-MB-468, 24 h, read-out: Activity
MDA-MB-468 [25] = test: Induction of apoptosis in human MDA-MB-468 cells assessed as early apoptotic cells at 15 uM after 24 hrs by Annexin V-FITC/PI staining based flow cytometry (reference value: 5.74%); assay type: functional
MDA-MB-468 [26] = test: Induction of apoptosis in human MDA-MB-468 cells assessed as late apoptotic cells at 15 uM after 24 hrs by Annexin V-FITC/PI staining based flow cytometry (reference value: 2.49%); assay type: functional
MDA-MB-468 [27] = test: Induction of apoptosis in human MDA-MB-468 cells assessed as necrotic cells at 15 uM after 24 hrs by Annexin V-FITC/PI staining based flow cytometry (reference value: 0.34%); assay type: functional
[28] = target: Cyclin-dependent kinase 2 (Homo sapiens) (UniProt P24941); test: Inhibition of CDK2 in human MDA-MB-468 cells assessed as increase in bax expression level at 15 uM measured up to 36 hrs by Western blot analysis; assay type: cell-based
[29] = target: Cyclin-dependent kinase 2 (Homo sapiens) (UniProt P24941); test: Inhibition of CDK2 in human MDA-MB-468 cells assessed as increase in bim expression level at 15 uM measured up to 36 hrs by Western blot analysis; assay type: cell-based
MDA-MB-468 [30] = test: Effect on cyclin E level in human CDK2-siRNA MDA-MB-468 cells at 15 uM by Western blot analysis; assay type: functional, cell-based
MDA-MB-468 [31] = test: Effect on bim level in human CDK2-siRNA MDA-MB-468 cells at 15 uM by Western blot analysis; assay type: functional, cell-based

## COc1ccc(Nc2ccnc(N3CCC(NC(=O)c4ccccc4F)CC3)n2)cc1
[1]
  pIC50: 6.55

## COc1ccc(Nc2ccnc(N3CCC(NC(=O)c4cccc(C)c4)CC3)n2)cc1
[1]
  pIC50: 6.32

## O=C(NC1CCN(c2nccc(Nc3ccc(F)cc3)n2)CC1)c1ccccc1F
[1]
  pIC50: 6.62

## COc1ccc(Nc2ccnc(N3CCC(NC(=O)c4ccc(F)cc4)CC3)n2)cc1
[1]
  pIC50: 6.39

## Cc1cccc(C(=O)NC2CCN(c3nccc(Nc4ccc(F)cc4)n3)CC2)c1
[1]
  pIC50: 6.41

## Cc1cc(Nc2ccc(F)cc2)nc(N2CCC(NC(=O)c3ccc(F)cc3)CC2)n1
[1]
  pIC50: 6.82

## Cc1ccc(C(=O)NC2CCN(c3nccc(Nc4ccc(F)cc4)n3)CC2)cc1
[1]
  pIC50: 6.56

## O=C(NC1CCN(c2nccc(Nc3ccc(F)cc3)n2)CC1)c1cccc(Cl)c1
[1]
  pIC50: 6.69

## Cc1cccc(C(=O)NC2CCN(c3nccc(Nc4ccccc4C)n3)CC2)c1
[1]
  pIC50: 6.54

## COc1ccc(C(=O)NC2CCN(c3nc(C)cc(Nc4ccc(F)cc4)n3)CC2)cc1
[1]
  pIC50: 7.27

## COc1ccc(Nc2ccnc(N3CCC(NC(=O)c4ccc(C)cc4)CC3)n2)cc1
[1]
  pIC50: 6.42

## Cc1cc(Nc2ccc(F)cc2)nc(N2CCC(NC(=O)c3ccccc3F)CC2)n1
[1]
  pIC50: 6.69

## Cc1cc(Nc2ccc(F)cc2)nc(N2CCC(NC(=O)c3cccc(Cl)c3)CC2)n1
[1]
  pIC50: 6.54

## Cc1ccc(C(=O)NC2CCN(c3nccc(Nc4ccccc4C)n3)CC2)cc1
[1]
  pIC50: 6.25

## COc1ccc(C(=O)NC2CCN(c3nccc(Nc4ccc(F)cc4)n3)CC2)cc1
MDA-MB-231
  growth inhibition (GI): Active
786-0
  growth inhibition (GI): Active
MDA-MB-468 [2]
  growth inhibition (GI): Active
HepG2
  growth inhibition (GI): Active
WM 266-4
  growth inhibition (GI): Active
MCF7
  growth inhibition (GI): Active
[3]
  inhibition: Active
[4]
  inhibition: Active
[5]
  inhibition: Active
[1]
  pIC50: 7.27 to 7.34
[6]
  pIC50: 6.56
CDK6/cyclin D3
  pIC50: 7.13 to 7.27
CDK7/Cyclin H/MNAT1
  pIC50: 7.05
MDA-MB-468 [7]
  pIC50: 4.85
MDA-MB-468 [8]
  pIC50: 5.05
MDA-MB-468 [9]
  pIC50: 5.24
MDA-MB-468 [10]
  Activity: 65.11%
MDA-MB-468 [11]
  Activity: 9.64%
MDA-MB-468 [12]
  Activity: 25.25%
[13]
  inhibition: Active
[14]
  inhibition: Active
MDA-MB-468 [15]
  Activity: Active
MDA-MB-468 [16]
  viability at 15 µM: 89.2%
MDA-MB-468 [17]
  Activity: 4.62%
MDA-MB-468 [18]
  Activity: 5.28%
MDA-MB-468 [19]
  Activity: 0.87%
MDA-MB-468 [20]
  viability at 15 µM: 76.6%
MDA-MB-468 [21]
  Activity: 3.82%
MDA-MB-468 [22]
  Activity: 16.82%
MDA-MB-468 [23]
  Activity: 2.73%
MDA-MB-468 [24]
  viability at 15 µM: 65.8%
MDA-MB-468 [25]
  Activity: 6.02%
MDA-MB-468 [26]
  Activity: 24.68%
MDA-MB-468 [27]
  Activity: 3.46%
[28]
  inhibition: Active
[29]
  inhibition: Active
MDA-MB-468 [30]
  Activity: inactive
MDA-MB-468 [31]
  Activity: inactive

## Cc1ccccc1Nc1ccnc(N2CCC(NC(=O)c3ccc(F)cc3)CC2)n1
[1]
  pIC50: 6.34

## Cc1ccccc1Nc1ccnc(N2CCC(NC(=O)c3cccc(Cl)c3)CC2)n1
[1]
  pIC50: 6.30

## COc1ccc(C(=O)NC2CCN(c3nccc(Nc4ccccc4C)n3)CC2)cc1
[1]
  pIC50: 6.54

## Cc1ccccc1Nc1ccnc(N2CCC(NC(=O)c3ccccc3F)CC2)n1
[1]
  pIC50: 6.40

## Cc1ccc(C(=O)NC2CCN(c3nc(C)cc(Nc4ccc(F)cc4)n3)CC2)cc1
[1]
  pIC50: 6.54

## Cc1cccc(C(=O)NC2CCN(c3nc(C)cc(Nc4ccc(F)cc4)n3)CC2)c1
[1]
  pIC50: 6.42

## O=C(NC1CCN(c2nccc(Nc3ccc(F)cc3)n2)CC1)c1ccc(F)cc1
[1]
  pIC50: 6.82

## COc1ccc(Nc2ccnc(N3CCC(NC(=O)c4cccc(Cl)c4)CC3)n2)cc1
[1]
  pIC50: 6.50

## COc1ccc(Nc2ccnc(N3CCC(NC(=O)c4ccc(OC)cc4)CC3)n2)cc1
[1]
  pIC50: 6.56
